Measured values from patent US20220026427A1, “CELL BASED ASSAYS AND KITS FOR ASSESSING SERUM CHOLINERGIC RECEPTOR ACTIVITY” (Centre for Addiction and Mental Health, priority 2017, published 2022).
Structures can show the parent of a compound that is named as a salt.

How the values were obtained:
[1] = molecular target: T1, human or rat M1 muscarinic receptors (Rattus norvegicus, UniProt P08482); test: Ca2+ mobilization (FluoForte) protocol in CHO cells expressing M1 receptors, pre- and post-carbachol phases; assay type: cell-based
T1 construct: host or cells: CHO cells (M1WT3), whole cells
T1 sequence (P08482 1-460): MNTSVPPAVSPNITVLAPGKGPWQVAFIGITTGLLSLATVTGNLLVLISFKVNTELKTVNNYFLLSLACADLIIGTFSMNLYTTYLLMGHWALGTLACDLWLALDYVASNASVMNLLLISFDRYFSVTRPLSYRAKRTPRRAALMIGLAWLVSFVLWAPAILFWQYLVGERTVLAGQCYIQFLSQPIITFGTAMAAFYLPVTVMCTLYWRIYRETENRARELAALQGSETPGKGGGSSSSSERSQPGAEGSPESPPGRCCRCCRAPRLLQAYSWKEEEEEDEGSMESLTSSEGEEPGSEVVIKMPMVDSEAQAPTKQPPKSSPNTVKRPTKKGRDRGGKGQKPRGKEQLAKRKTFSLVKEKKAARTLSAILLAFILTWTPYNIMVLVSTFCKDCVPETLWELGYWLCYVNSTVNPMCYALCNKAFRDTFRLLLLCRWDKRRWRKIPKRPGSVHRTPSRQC

[2] = test system: cognitively intact healthy participants; details: in vivo, iv
Text: Cambridge Neuropsychological Test Automated Battery (CANTAB-AD):
Two main challenges are often encountered with many of the newer neurocognitive tasks. First is the lack of standardization in administering such tasks. Second is the lack of information on their psychometric properties. The Cambridge Neuropsychological Test Automated Battery (CANTAB) system addresses both of these challenges (www.cambridgecognition.com). The design of the CANTAB is based on well-established neurocognitive experimental paradigms. It was designed initially to provide componential analysis of cognitive functions in the elderly and individuals with dementia. The CANTAB Eclipse consists of 22 tasks that assess neurocognitive processes within a wide range of relatively independent cognitive domains, including visual memory, attention, working memory and problem solving. Each of the tasks is graded, allowing the assessment of patients with varying level of impairment. Increasing the difficulty of a task avoids a ceiling effect. Conversely, decreasing the difficulty of a task avoids a floor effect and allows the distinction between specific and generalized deficits (a concern discussed above). The tasks are automated and therefore testing is given in a standardized manner with a standardized feedback about accuracy and speed. […] Estimates of test-retest reliability and of practice effects are available for many of the CANTAB tasks based on an elderly sample with an age range of 60-80 years. The CANTAB has been used in a variety of clinical populations providing an opportunity to compare findings related to different disorders, including findings examining cognition in late-life bipolar disorder. Finally, the CANTAB tasks are independent of language and culture and can be used in population for whom English is not a primary language^46.
Participants attended the Centre for Addiction and Mental Health on two separate occasions:
Visit 2: Upon arrival at CAMH, participants were administered the CANTAB. An IV line was then set up by a research nurse and the first blood sample was taken. […] The CANTAB was completed once more. […] The qualified investigator or designate was available for the entirety of the study visit.

CN1[C@@H]2CC[C@H]1C[C@@H](OC(=O)C(CO)c1ccccc1)C2 (stereo partly shown) [Atropine, atropine]
effect of the antagonist alone on Ca2+ mobilization [1]: no effect on their own
effect on the agonist response (serum peak) [1]: completely blocked this agonist response

Clc1ccc2c(c1)N=C(N1CCNCC1)c1ccccc1N2 [NDMC, N-desmethylclozapine]
effect on Ca2+ mobilization in the pre-carbachol phase [1]: stronger effects than CLZ
effect on the carbachol response (post-carbachol phase) [1]: virtually eliminated the carbachol response

CN1[C@@H]2C[C@@H](OC(=O)[C@H](CO)c3ccccc3)C[C@H]1[C@@H]1O[C@@H]12 [scopolamine, Scopolamine Hydrobromide]
blc_pc difference score (Big/little circle, Percent correct) [2]: −0.8
dms_pc difference score (Delayed matching to sample, Percent correct (all delays)) [2]: −19.3
dms_pcs difference score (Delayed matching to sample, Percent correct (simultaneous)) [2]: 4.4
dms_pege difference score (Delayed matching to sample, Prob error given error) [2]: 0.1
pal_tea6 difference score (Paired associated learning, Total errors (6 shapes, adjusted)) [2]: 9.0
pal_tea difference score (Paired associated learning, Total errors (adjusted)) [2]: 19.1
rvp_a difference score (Rapid image visual processing, A′) [2]: −0.1
soc_mitt5 difference score (Stocking of Cambridge, Mean initial thinking time (5 moves)) [2]: −3055.0
soc_mstt5 difference score (Stocking of Cambridge, Mean subsequent thinking time (5 moves)) [2]: 5139.3
soc_psimm difference score (Stocking of Cambridge, Problems solved in minimum moves) [2]: −1.7
swm_be difference score (Spatial working memory, Between errors) [2]: 20.2
swm_strat difference score (Spatial working memory, Strategy) [2]: 3.1
